Reference: patent US4255435A, “Triazole compounds” (priority 1980, dated 1981)
≈ marks a conversion by molar mass, not a printed value.

Columns and labels:
Assay type in all cases: in vivo
[1] = system: larvae of the diamond back moth (Plutella maculipennis); test: Mortality of larvae of the diamond back moth on treated cabbage leaf; details: for LC50: Plutella, 48 h, read-out: Plutella maculipennis LD50 values; for Plutella maculipennis LD50 values: Table 2, comparative 1,2,4-triazoles, method of Example 9; for Plutella maculipennis LD50 values / ACTIVITY LD50: 2880 min; for ACTIVITY LD50: Table 1, cabbage leaf dipped in test solution, mortality after 24 + 24 hours, two replicates
Experimental: (§1) Ten larvae were placed in a tube together with a square inch of cabbage leaf which had been dipped in the test solution and allowed to dry. After twenty-four hours untreated cabbage was added for food and after a further twenty-four hours an assessment was made of the mortality of the larvae.
Two replicates were carried out for each test compound and test solutions of varying concentrations employed so that an LD50 value could be calculated.

aphid Megoura viciae = test: Aphids on sprayed broad bean plants; details: Table 6; sprayed infested broad bean plants, 24 hours
Experimental: Broad bean plants 3 to 5 cm. high were infested with aphids and then sprayed with an aqueous dispersion containing varying concentrations of test compound. Each plant was kept under a lamp glass for 24 hours and then examined. In this way an LD50 value for the compounds was calculated.

[2] = system: larvae of the cabbage white butterfly (Pieris brassicae); test: Mortality of larvae of the cabbage white butterfly on treated cabbage leaf; details: Table 3; cabbage leaf dipped in test solution, mortality after 24 + 24 hours, two replicates; 2880 min
Experimental: This example illustrates the activity of compounds of the invention against larvae of the cabbage white butterfly (Pieris brassicae).
as §1

[3] = system: eggs of the cabbage root fly (Erioischia brassicae); test: Egg hatch of cabbage root fly eggs in test solution; details: Table 4; eggs stored six days, egg hatch counted, two replicates; 8640 min
Source text: This example illustrates the activity of compounds of the invention against the eggs of the cabbage root fly (Erioischia brassicae).
The eggs were then stored for six days and the egg hatch then counted.

[4] = system: larvae of the codling moth (Cydia pomonella); test: Codling moth larvae on sprayed apple (number of strikes); details: Table 5, after five days, two replicates, 7200 min
Source text: This example illustrates the activity of compounds of the invention against the larvae of the codling moth (Cydia pomonella).
An apple sprayed with test solution was allowed to dry and a perspex ring of 1 inch diameter was attached to the apple. Ten larvae were then placed on the apple surface and contained within the ring by means of a muslin covering. After five days an assessment of mortality was made by counting the number of strikes (i.e. the number of entry holes) made by the larvae.

[5] = system: nematode Meloidogyne incognita incognita; test: Root knots of tomato plants in nematode-infested treated soil; details: 100 parts per million per unit volume of soil, 30° C., ten days; untreated controls average more than 20 knots
Experimental: This example illustrates the activity of compounds of the invention against the nematode Meloidogyne incognita incognita.
Small tomato plants were transferred to containers with infested soil. Sufficient test compound to give a concentration of 100 parts per million per unit volume of soil was poured onto the soil and the containers suspended in warm water at 30° C.
After ten days the plants were knocked out of the containers and the roots washed clean, the number of knots being noted. The latter was an indication of activity and a low score indicated high activity.

## C=CCN(CC=C)C(=O)n1cnc(SCCN(CC)CC)n1 [1-diallylcarbamoyl-3-(2-diethylaminoethylthio)-1,2,4-triazole]
[1]
  LC50: > 5000 µg/mL

## 1(2)-diallylcarbamoyl-3-ethylthio-5-methyl-1,2,4-triazole
[1]
  Plutella maculipennis LD50 values: > 5000 p.p.m.

## C#CCSc1nc(C(C)C)nn1C(=O)N(C)C [methyl methyl isopropyl prop-2-ynyl, 1(2)-N,N-dimethylcarbamoyl-3-isopropyl-5-prop-2-ynylthio-1,2,4-triazole]
Aphid Megoura viciae
  ACTIVITY LD50: 1.5 p.p.m.
[1]
  ACTIVITY LD50: 87 p.p.m.
[2]
  ACTIVITY LD50: 31 p.p.m.

## CN(C)C(=O)n1cncn1 [1-dimethylcarbamoyl-1,2,4-triazole]
[1]
  LC50: 1250 µg/mL (≈ 8.92 mM)

## CCCCCCSc1ncn(C(=O)N(C)C)n1 [1-dimethylcarbamoyl-3-n-hexylthio-1,2,4-triazole]
[1]
  LC50: > 5000 µg/mL

## 1(2)-dimethlcarbamoyl-3-ethylthio-5-methyl-1,2,4-triazole
[1]
  Plutella maculipennis LD50 values: 1600 p.p.m.

## 1(2)-N,N-dimethylcarbamoyl-3-s-butyl-5-prop-2-ynylthio-1,2,4-triazole [methyl methyl s-butyl prop-2-ynyl]
[1]
  ACTIVITY LD50: 270 p.p.m.

## CCCCCCCCCCCCSc1nc(C)n(C(=O)N(C)C)n1 [1-dimethylcarbamoyl-3-dodecylthio-5-methyl-1,2,4-triazole]
[1]
  LC50: > 5000 µg/mL

## CSc1nc(-c2ccccc2)nn1C(=O)N(C)C [1-dimethylcarbamoyl-3-phenyl-5-methylthio-1,2,4-triazole]
[1]
  LC50: > 5000 µg/mL

## CN(C)C(=O)n1cnc(SC2CCCCC2)n1 [1-dimethylcarbamoyl-3-cyclohexylthio-1,2,4-triazole]
[1]
  LC50: > 5000 µg/mL

## Cc1ncn(C(=O)N(C)C)n1 [1-dimethylcarbamoyl-3-methyl-1,2,4-triazole]
[1]
  LC50: > 5000 µg/mL

## C=C(Cl)CSc1nc(C(C)(C)C)nn1C(=O)N(C)C [methyl methyl t-butyl 2-chloroallyl, 1(2)-N,N-dimethylcarbamoyl-3-t-butyl-5-(2-chloroallylthio)-1,2,4-triazole]
Aphid Megoura viciae
  ACTIVITY LD50: 1.6 p.p.m.
[3]
  ACTIVITY LD50: 0.22 p.p.m.

## CN(C)C(=O)n1cnc(Br)n1 [1-dimethylcarbamoyl-3-bromo-1,2,4-triazole]
[1]
  LC50: > 5000 µg/mL

## CN(C)C(=O)n1cnc(SSc2ncn(C(=O)N(C)C)n2)n1 [1-dimethylcarbamoyl-3-(1-dimethylcarbamoyl-1,2,4-triazole-3-yldithio)-1,2,4,-triazole]
[1]
  LC50: > 5000 µg/mL

## 1(2)-N,N-dimethylcarbamoyl-3-s-butyl-5-propylthio-1,2,4-triazole [methyl methyl s-butyl propyl]
Aphid Megoura viciae
  ACTIVITY LD50: 0.86 p.p.m.
[1]
  ACTIVITY LD50: 320 p.p.m.
[4]
  ACTIVITY LD50: 10 p.p.m.

## 1(2)-N,N-dimethylcarbamoyl-3-t-butyl-5-ethylthio-1,2,4-triazole [methyl methyl t-butyl ethyl]
[5]
  number of knots on roots: ≤ 2 knots
Aphid Megoura viciae
  ACTIVITY LD50: 0.71 p.p.m.
[4]
  ACTIVITY LD50: 24 p.p.m.

## CCc1nc(SC)n(C(=O)N(C)C)n1 [1-dimethylcarbamoyl-3-ethyl-5-methylthio-1,2,4-triazole]
[1]
  LC50: 1900 µg/mL (≈ 8.87 mM)

## C=CCN(CC=C)C(=O)n1cnc(SCC(=O)OC)n1 [1-diallylcarbamoyl-3-methoxycarbonylmethylthio-1,2,4-triazole]
[1]
  LC50: > 5000 µg/mL

## 1(2)-N,N-dimethylcarbamoyl-3-isopropyl-5-(2-chloroallylthio)-1,2,4-triazole [methyl methyl isopropyl 2-chloroallyl]
Aphid Megoura viciae
  ACTIVITY LD50: 1.2 p.p.m.
[3]
  ACTIVITY LD50: 0.27 p.p.m.

## 1(2)-N-ethyl-N-methylcarbamoyl-3-t-butyl-5-prop-2-ynylthio-1,2,4-triazole [ethyl methyl t-butyl prop-2-ynyl]
[1]
  ACTIVITY LD50: 68 p.p.m.

## 1(2)-N,N-dimethylcarbamoyl-3-s-butyl-5-methylthio-1,2,4-triazole [methyl methyl s-butyl methyl]
Aphid Megoura viciae
  ACTIVITY LD50: 0.32 p.p.m.
[1]
  ACTIVITY LD50: 140 p.p.m.
[4]
  ACTIVITY LD50: 14 p.p.m.

## CSc1nc(C)nn1C(=O)N(C)C [1-dimethylcarbamoyl-3-methyl-5-methylthio-1,2,4-triazole]
[1]
  LC50: 2200 µg/mL (≈ 11 mM)

## CCCCCCCCCCCc1nc(SC)n(C(=O)N(C)C)n1 [1-dimethylcarbamoyl-3-undecyl-5-methylthio-1,2,4-triazole]
[1]
  LC50: > 5000 µg/mL

## CSc1ncn(C(=O)N(C)C)n1 [1-dimethylcarbamoyl-3-methylthio-1,2,4-triazole]
[1]
  LC50: 2300 µg/mL (≈ 12.3 mM)

## 2(2)-dimethylthiocarbamoyl-3-methylthio-5-methyl-1,2,4-triazole
[1]
  Plutella maculipennis LD50 values: > 5000 p.p.m.

## 1(2)-N,N-dimethylcarbamoyl-3-isopropyl-5-vinylthio-1,2,4-triazole [methyl methyl isopropyl vinyl]
[1]
  ACTIVITY LD50: < 25 p.p.m.

## C=C(Br)CSc1nc(C(C)(C)C)nn1C(=O)N(C)C [methyl methyl t-butyl 2-bromoallyl, 1(2)-N,N-dimethylcarbamoyl-3-t-butyl-5-(2-bromoallylthio)-1,2,4-triazole]
Aphid Megoura viciae
  ACTIVITY LD50: 0.66 p.p.m.
[3]
  ACTIVITY LD50: 0.57 p.p.m.

## CC1CCN(C(=O)n2cncn2)CC1 [1-(4-methylpiperidinocarbonyl)-1,2,4-triazole]
[1]
  LC50: > 5000 µg/mL

## CCOC(=O)CSc1nc(C)n(C(=O)N(C)C)n1 [1-dimethylcarbamoyl-3-ethoxycarbonylmethylthio-5-methyl-1,2,4-triazole]
[1]
  LC50: > 5000 µg/mL

## Cc1nc(Sc2ccc([N+](=O)[O-])cc2)nn1C(=O)N(C)C [1-dimethylcarbamoyl-3-p-nitrophenylthio-5-methyl-1,2,4-triazole]
[1]
  LC50: > 5000 µg/mL

## 1(2)-N-methyl-N-n-butylcarbamoyl-3-methylthio-5-methyl-1,2,4-triazole
[1]
  Plutella maculipennis LD50 values: > 5000 p.p.m.

## CCSc1ncn(C(=O)N(CC#N)CC#N)n1 [1-di(cyanomethyl)carbamoyl-3-ethylthio-1,2,4-triazole]
[1]
  LC50: > 5000 µg/mL

## CCCCCCCCCCCCSc1ncn(C(=O)N(C)C)n1 [1-dimethylcarbamoyl-3-dodecylthio-1,2,4-triazole]
[1]
  LC50: > 5000 µg/mL

## 1(2)-N,N-dimethylcarbamoyl-3-isopropyl-5-propylthio-1,2,4-triazole [methyl methyl isopropyl propyl]
Aphid Megoura viciae
  ACTIVITY LD50: 1.6 p.p.m.
[3]
  ACTIVITY LD50: 0.57 p.p.m.
[1]
  ACTIVITY LD50: 220 p.p.m.
[4]
  ACTIVITY LD50: < 10 p.p.m.

## 1(2)-diethylcarbamoyl-3-methylthio-5-methyl-1,2,4-triazole
[1]
  Plutella maculipennis LD50 values: > 5000 p.p.m.

## Cc1nc(C)n(C(=O)N(C)C)n1 [1-dimethylcarbamoyl-3,5-dimethyl-1,2,4-triazole]
[1]
  LC50: > 5000 µg/mL

## Cc1nc(SCc2ccccc2)nn1C(=O)N(C)C [1-dimethylcarbamoyl-3-benzylthio-5-methyl-1,2,4-triazole]
[1]
  LC50: > 5000 µg/mL

## 1(2)-pyrrolidinocarbonyl-3-methylthio-5-methyl-1,2,4-triazole
[1]
  Plutella maculipennis LD50 values: > 5000 p.p.m.

## 1(2)-N,N-dimethylcarbamoyl-3-isopropyl-5-(2-bromoallylthio)-1,2,4-triazole [methyl methyl isopropyl 2-bromoallyl]
[3]
  ACTIVITY LD50: 0.9 p.p.m.

## 1(2)-N,N-dimethylcarbamoyl-3-s-butyl-5-vinylthio-1,2,4-triazole [methyl methyl s-butyl vinyl]
[1]
  ACTIVITY LD50: 160 p.p.m.

## CN(C)C(=O)n1cnc(Sc2ccc([N+](=O)[O-])cc2[N+](=O)[O-])n1 [1-dimethylcarbamoyl-3-(2,4-dinitrophenylthio)-1,2,4-triazole]
[1]
  LC50: > 5000 µg/mL

## 1(2)-N,N-dimethylcarbamoyl-3-t-butyl-5-vinylthio-1,2,4-triazole [methyl methyl t-butyl vinyl]
[5]
  number of knots on roots: ≤ 2 knots
Aphid Megoura viciae
  ACTIVITY LD50: 0.61 p.p.m.
[1]
  ACTIVITY LD50: 160 p.p.m.

## 1(2)-N,N-dimethylcarbamoyl-3-s-butyl-5-ethylthio-1,2,4-triazole [methyl methyl s-butyl ethyl]
Aphid Megoura viciae
  ACTIVITY LD50: 0.66 p.p.m.
[1]
  ACTIVITY LD50: 220 p.p.m.
[4]
  ACTIVITY LD50: 18 p.p.m.

## 1(2)-N,N-dimethylcarbamoyl-3-s-butyl-5-(2-chloroallylthio)-1,2,4-triazole [methyl methyl s-butyl 2-chloroallyl]
[3]
  ACTIVITY LD50: 0.8 p.p.m.

## 1(2)-N,N-dimethylcarbamoyl-3-isopropyl-5-ethylthio-1,2,4-triazole [methyl methyl isopropyl ethyl]
[1]
  ACTIVITY LD50: 140 p.p.m.
[4]
  ACTIVITY LD50: < 10 p.p.m.

## CN(C)C(=O)n1cnc(Cl)n1 [1-dimethylcarbamoyl-3-chloro-1,2,4-triazole]
[1]
  LC50: > 5000 µg/mL
